According to PMC8246065 (The EMBO Journal, 2021):

How the values were obtained:
NOD1 [1] = biological target: T1, NOD1 (Homo sapiens, UniProt Q9Y239); test: Microscale thermophoresis (MST) binding to purified NOD1-GFP; settings: read-out: Kd value of ADP alone with NOD1
T1 sequence (Q9Y239 1-953): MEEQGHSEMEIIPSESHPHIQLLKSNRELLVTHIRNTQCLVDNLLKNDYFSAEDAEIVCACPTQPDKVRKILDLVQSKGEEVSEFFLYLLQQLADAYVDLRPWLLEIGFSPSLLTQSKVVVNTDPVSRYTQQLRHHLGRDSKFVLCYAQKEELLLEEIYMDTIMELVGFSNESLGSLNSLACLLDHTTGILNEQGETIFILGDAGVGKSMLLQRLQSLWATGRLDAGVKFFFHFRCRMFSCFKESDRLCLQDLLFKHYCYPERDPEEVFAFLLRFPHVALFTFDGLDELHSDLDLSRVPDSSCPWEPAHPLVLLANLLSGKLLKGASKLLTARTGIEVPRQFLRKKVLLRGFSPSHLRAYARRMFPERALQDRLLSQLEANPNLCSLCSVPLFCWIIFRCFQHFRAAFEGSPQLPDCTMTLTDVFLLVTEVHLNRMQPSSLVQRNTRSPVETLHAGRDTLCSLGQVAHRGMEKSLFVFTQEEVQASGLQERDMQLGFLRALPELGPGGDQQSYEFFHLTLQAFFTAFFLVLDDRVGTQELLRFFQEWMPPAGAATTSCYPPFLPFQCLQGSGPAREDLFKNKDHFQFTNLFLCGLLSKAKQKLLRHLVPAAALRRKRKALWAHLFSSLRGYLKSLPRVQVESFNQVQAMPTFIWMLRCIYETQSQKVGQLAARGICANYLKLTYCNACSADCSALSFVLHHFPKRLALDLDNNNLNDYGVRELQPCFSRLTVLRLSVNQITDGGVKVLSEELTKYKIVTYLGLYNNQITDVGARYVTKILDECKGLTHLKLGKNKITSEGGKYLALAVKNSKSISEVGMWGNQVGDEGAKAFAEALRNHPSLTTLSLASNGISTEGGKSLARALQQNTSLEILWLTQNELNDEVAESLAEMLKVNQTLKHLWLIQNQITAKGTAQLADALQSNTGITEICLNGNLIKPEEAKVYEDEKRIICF
Method: (§1) The lysates were incubated with 2 ml GFP‐Trap agarose at 4°C for 4 h. The agarose was collected with Poly‐Prep columns by gravity flow. […] To remove heat shock proteins, columns were further washed with 50 ml wash buffer III (50 mM Tris–HCl, pH 7.5, 150 mM NaCl, 5 mM MgCl2+, 1 mM ATP). To elute the proteins, the agarose was mixed with 2 ml elution buffer (100 mM Glycine, pH 2.5) for 1 min and the eluted proteins were immediately neutralized with 0.2 ml of 1 M Tris, pH 10.5.

NOD2 = NOD2 (Homo sapiens, UniProt Q9HC29); test: Microscale thermophoresis (MST) binding to purified NOD2-GFP; settings: read-out: Kd value of ADP alone with NOD2
Method: as §1

NOD1 [2] = tested on: NOD1; set-up: method as in Askari et al, 2012; settings: quoted by referee; ref Askari et al, 2012; read-out: NOD1 affinity, IC50; cited from earlier work
[3] = tested on: human dermal fibroblasts (HDFs); test: S1P quantification by ELISA in cell lysates; format: cell-based; settings: primary fibroblasts, Fig 3C
Method: Human neonatal dermal fibroblasts were grown in DMEM full medium. For each condition, 2x T75 flask cells were required. After 4‐h stimulation with various stressors, cells were washed with PBS and collected in lysis buffer (20 mM PIPES PH7.4, 150 mM NaCl, 1 mM EGTA, 1% v/v Triton X‐100, 1.5 mM MgCl2, 0.1% SDS, 1X PhosSTOP, 1X Protease inhibitor cocktail without EDTA). Protein concentration was measured by BCA assay kit (Thermo Fisher) and diluted with delipidized serum to 1 µg/µl. Then, the diluted samples were added into S1P ELISA plates according to the instructions.

BMDMs and fibroblasts = test: Cell death upon stressor treatment; format: cell-based; settings: same concentration
Method: Cell viability assays were performed with CellTiter 96 AQueous one solution reagent (Promega) according to the manufacturer’s instructions. Cell viability upon various stimulations was normalized to corresponding controls.

THP‐1 cells = test: IL6 expression and production in THP-1 cells upon ER stress (de novo vs hydrolysis pathway inhibitors); format: cell-based, human; settings: THP-1, tunicamycin 5 µg/ml, Appendix Fig S2
Method: The human monocytic cell line THP‐1 was obtained from the American Type Culture Collection (ATCC, TIB‐202) and maintained in RPMI 1640 (Gibco, 31870) with 10% (v:v) heat‐inactivated fetal bovine serum (FBS, Sigma‐Aldrich, F0804), 1 mM sodium pyruvate (Gibco, 11360070), 2 mM L‐glutamine (Gibco, 25030081), 10 mM HEPES buffer (Gibco, 15630080), pH 7.2‐7.5, and 50 µM 2‐mercaptoethanol (Gibco, 31350010). To differentiate THP‐1 into macrophage‐like cells, THP‐1 cells were stimulated with 50 ng/ml phorbol 12‐myristate 13‐acetate (Sigma‐Aldrich, P8139) for 24 h and then incubated with fresh medium for another 48 h. HEK293T WT and HEK293T NOD1/2 dKO cells were generated as described (Dagil et al, 2016). HeLa inducible NOD1‐GFP and NOD2‐GFP cells were generated by co‐transfection of pcDNA5/FRT/TO‐EGFP‐NOD1 or pcDNA5/FRT/TO‐EGFP‐NOD2 (Addgene #131206 and #131207) together with pOG44 in a 9:1 ratio into HeLa FlpIN T‐REx cells (kindly provided by the Hentze Lab, EMBL, Heidelberg) using Lipofectamine 2000 (Thermo Fisher Scientific) and selected with 10 µg/ml blasticidin and 500 µg/ml hygromycin B. HeLa inducible NOD1‐GFP and NOD2‐GFP cells, human neonatal dermal fibroblasts, and HEK293T cells (DSMZ, ACC305) were maintained in complete Dulbecco’s modified Eagle’s medium (DMEM) 4.5 g/l glucose (Gibco, 10938) with 10% (v:v) heat‐inactivated FBS, 1 mM sodium pyruvate, and 2 mM L‐glutamine. To induce NOD1 or NOD2 expression, HeLa NOD1 or NOD2 cells were treated with 0.5 µg/ml or 0.25 µg/ml doxycycline for at least 16 h, respectively. All cells have been checked for mycoplasma contamination regularly. […]
(§2) Total RNA was isolated with TRIzol reagent, as described by the manufacturer (Invitrogen). […] Gene expression was normalized to glyceraldehyde‐3‐phosphate dehydrogenase (GAPDH), and fold changes were calculated against corresponding controls. qRT–PCR data were representative of at least three independent experiments, with at least 2 technical replicates per experiment. […]

[4] = tested on: THP‐1 cells, BMDMs, and human CD14+ monocytes; test: IL6 expression and production upon tunicamycin-induced ER stress with sphingolipid pathway inhibitors; format: cell-based; settings: inhibitor pretreatment, tunicamycin 5 µg/ml; all types of cells
Method: (§3) The human monocytic cell line THP‐1 was obtained from the American Type Culture Collection (ATCC, TIB‐202) and maintained in RPMI 1640 (Gibco, 31870) with 10% (v:v) heat‐inactivated fetal bovine serum (FBS, Sigma‐Aldrich, F0804), 1 mM sodium pyruvate (Gibco, 11360070), 2 mM L‐glutamine (Gibco, 25030081), 10 mM HEPES buffer (Gibco, 15630080), pH 7.2‐7.5, and 50 µM 2‐mercaptoethanol (Gibco, 31350010). To differentiate THP‐1 into macrophage‐like cells, THP‐1 cells were stimulated with 50 ng/ml phorbol 12‐myristate 13‐acetate (Sigma‐Aldrich, P8139) for 24 h and then incubated with fresh medium for another 48 h. HEK293T WT and HEK293T NOD1/2 dKO cells were generated as described (Dagil et al, 2016). […]
as §2

[5] = tested on: HDFs and HeLa inducible NOD1 or NOD2 cells; test: IL6 expression and production in response to various stressors with sphingosine kinase inhibition; format: cell-based, human; settings: SPHKi 50 µM (Fig 3D-G)
Method: as §3, §2

Sequence of NOD2 (Q9HC29 whole entry): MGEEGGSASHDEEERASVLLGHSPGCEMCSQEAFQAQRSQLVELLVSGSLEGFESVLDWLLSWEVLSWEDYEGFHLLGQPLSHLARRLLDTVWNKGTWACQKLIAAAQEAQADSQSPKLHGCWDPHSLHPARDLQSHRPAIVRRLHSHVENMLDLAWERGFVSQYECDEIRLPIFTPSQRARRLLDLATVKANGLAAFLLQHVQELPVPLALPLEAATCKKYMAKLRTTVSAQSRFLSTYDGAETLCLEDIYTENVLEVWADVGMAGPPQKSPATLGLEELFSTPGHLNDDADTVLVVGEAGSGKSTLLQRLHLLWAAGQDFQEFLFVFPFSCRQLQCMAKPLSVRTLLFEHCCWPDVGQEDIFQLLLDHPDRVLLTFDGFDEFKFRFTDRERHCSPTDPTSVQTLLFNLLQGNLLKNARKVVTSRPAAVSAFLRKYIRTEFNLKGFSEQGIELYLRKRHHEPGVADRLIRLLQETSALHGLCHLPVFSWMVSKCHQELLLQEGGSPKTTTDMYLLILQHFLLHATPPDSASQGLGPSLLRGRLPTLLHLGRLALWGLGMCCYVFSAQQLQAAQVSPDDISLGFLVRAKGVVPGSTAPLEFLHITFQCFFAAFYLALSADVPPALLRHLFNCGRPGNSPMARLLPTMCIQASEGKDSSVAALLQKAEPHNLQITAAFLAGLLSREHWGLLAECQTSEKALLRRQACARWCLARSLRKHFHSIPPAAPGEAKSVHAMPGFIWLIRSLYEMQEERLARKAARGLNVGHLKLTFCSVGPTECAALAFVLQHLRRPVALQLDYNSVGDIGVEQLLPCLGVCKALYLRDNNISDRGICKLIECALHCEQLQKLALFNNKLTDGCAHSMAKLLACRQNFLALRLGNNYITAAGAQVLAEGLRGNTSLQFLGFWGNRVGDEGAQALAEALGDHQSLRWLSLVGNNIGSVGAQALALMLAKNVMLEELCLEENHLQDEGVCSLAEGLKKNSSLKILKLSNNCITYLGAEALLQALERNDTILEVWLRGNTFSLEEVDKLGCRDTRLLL

In the case of Nc1ncnc2c1ncn2[C@@H]1O[C@H](COP(=O)(O)OP(=O)(O)O)[C@@H](O)[C@H]1O [ADP], the Kd (NOD1 [1]) is listed as ~100 nM, the Kd (NOD2) is listed as ~150 nM and the IC50 (NOD1 [2]) is listed as ~190 nM.
For Nc1ncnc2c1ncn2[C@@H]1O[C@H](COP(=O)(O)OP(=O)(O)OP(=O)(O)O)[C@@H](O)[C@H]1O [ATP], the IC50 (NOD1 [2]) is listed as ~15 nM.
With C[C@@H]1C[C@@H]([C@H](O)CC2CC(=O)NC(=O)C2)C(=O)[C@@H](C)C1 [CHX, cycloheximide] the “Level of S1P in fibroblasts upon stressor” value [3] was “highest level of S1P in fibroblasts” and the “Cell death in BMDMs compared with fibroblasts” value (BMDMs and fibroblasts) was “higher”.
In the case of O=C(/C=C/c1ccc(/C=C/C(=O)Nc2ccc(C3=NCCN3)cc2)cc1)Nc1ccc(C2=NCCN2)cc1 [GW4869], the “IL6 expression and production upon ER stress” value (THP‐1 cells) is reported as “not”.
In the case of N[C@H]1CON=C1O [L‐cycloserine], the “IL6 expression and production upon ER stress” value (THP‐1 cells) is reported as “not”.
In the case of Oc1ccc(Nc2nc(-c3ccc(Cl)cc3)cs2)cc1 [SKI‐II], the “IL6 expression and production upon tunicamycin-induced ER stress” value [4] is reported as “abolished” and the “IL6 expression and production in response to various stressors” value [5] is reported as “markedly diminished”.
For COc1ccc(/C=C/C(=O)c2c(-c3ccccc3)c3ccccc3[nH]c2=O)cc1 [ceranib‐2], the “IL6 expression and production upon tunicamycin-induced ER stress” value [4] was “abolished”.
With CN(C)CCCN1c2ccccc2CCc2ccccc21 [imipramine] the “IL6 expression and production upon ER stress” value (THP‐1 cells) was “abrogated”.
